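In this assay, cells in 96-well plates receive the compound at five concentrations for 48 hours. Endpoints are linearly interpolated between the surrounding concentrations. At the GI50, growth is halved.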 Calls of active or inactive are those of the source. Cut-off read from the data, not from the text of the source: active = GI50 up to about 1.1 µM and inactive = higher. A value given as a limit tells only on which side of the number the result lay.

Test systems include A498; A549; ACHN; COLO 205; DU-145; HL-60; HT-29; Hs-578T; KM12; LOX IMVI; M14; MCF7; MDA-MB-231; Malme-3M; NCI-H460; OVCAR-4; SF-539; SK-MEL-5; U-251.
Common to all, as to assay: NCI-60 cell line screen, 48 h

Regarding `CC(=O)Nc1[nH]c(C#N)nc1C#N`, the GI50 with A498, with A549, in the test with ACHN, in the test with COLO 205, in the test with DU-145 and in the test on HL-60 was > 100 µM (inactive) throughout. For the same compound, the GI50 with HT-29, in the test with Hs-578T, with KM12, in the test with LOX IMVI, in the test with M14 and with MCF7 was > 100 µM (inactive) throughout. For the same compound, the GI50 with MDA-MB-231, in the test on Malme-3M, with NCI-H460, with OVCAR-4, with SF-539 and with SK-MEL-5 was > 100 µM (inactive) each time. Further, the GI50 in the test with U-251 was > 100 µM (inactive).

Regarding `CC1(C)CC(=O)C(CC2C(=O)c3ccccc3C2=O)C(=O)C1C(=O)C(=O)Nc1cccc2ccc(O)cc12` (stereo not drawn), the GI50 with A498 was 20.8 µM (inactive); in the test on A549, > 100 µM (inactive); with ACHN, > 100 µM (inactive); in the test with COLO 205, > 100 µM (inactive); in the test with DU-145, > 100 µM (inactive); in the test on HL-60, > 100 µM (inactive). The GI50 in the test with HT-29 is > 100 µM (inactive); in the test with Hs-578T, 74.6 µM (inactive); in the test with KM12, > 100 µM (inactive); in the test with LOX IMVI, 94.4 µM (inactive); in the test on M14, > 100 µM (inactive); with MCF7, 32.2 µM (inactive). Besides, the GI50 with MDA-MB-231 was 34 µM (inactive); with Malme-3M, > 100 µM (inactive); in the test on NCI-H460, > 100 µM (inactive); in the test on OVCAR-4 it was 88.7 µM (inactive); in the test on SF-539, > 100 µM (inactive); in the test with SK-MEL-5, > 100 µM (inactive). For the same compound, the GI50 in the test with U-251 was > 100 µM (inactive).

As for `CC(=O)N[C@H]1CCCC[C@@H]1OC(C)=O`, the GI50 in the test on A498, in the test on ACHN, in the test on COLO 205, with DU-145, in the test with HL-60 and in the test with HT-29 was > 100 µM (inactive) each time. Further, the GI50 with Hs-578T, in the test on KM12, in the test with LOX IMVI, with MCF7, in the test with MDA-MB-231 and in the test with Malme-3M was > 100 µM (inactive) in each case. Also, the GI50 with NCI-H460, in the test on OVCAR-4, in the test with SK-MEL-5 and in the test with U-251 was > 100 µM (inactive) each time.

With `C/C(=N\NC(=S)N1CCN(c2ccccn2)CC1)c1nccs1`, the GI50 with A498 is 1.88 µM (inactive); in the test with A549, 0.908 µM (active); with ACHN, 0.355 µM (active); in the test with COLO 205, < 0.0248 µM (active); in the test with DU-145, 0.29 µM (active); in the test with HL-60, 0.01 µM (active). The GI50 with HT-29 is 0.335 µM (active); in the test on Hs-578T, 2.8 µM (inactive); with KM12, 0.485 µM (active); with LOX IMVI, 0.405 µM (active); with M14 it was 0.16 µM (active); with MCF7 it was 0.00665 µM (active). Also, the GI50 was 0.022 µM (active) with MDA-MB-231; 3.82 µM (inactive) in the test on Malme-3M; 0.104 µM (active) with NCI-H460; 1.03 µM (active) with OVCAR-4; 0.524 µM (active) in the test on SF-539; 0.219 µM (active) in the test on SK-MEL-5. Further, the GI50 in the test on U-251 is 0.405 µM (active).

Consider `O=C1c2ccccc2-c2c1c(-c1ccc(O)cc1O)nc1ccc3ccccc3c21`, for which the GI50 in the test on A498, in the test on A549, in the test on ACHN, in the test on COLO 205, in the test on DU-145 and in the test on HT-29 was > 100 µM (inactive) throughout. Further, the GI50 in the test on Hs-578T was 21.1 µM (inactive); with KM12, > 100 µM (inactive); in the test with M14 it was > 100 µM (inactive); in the test on MCF7, 79.4 µM (inactive); in the test with MDA-MB-231, 27.8 µM (inactive); with Malme-3M it was > 100 µM (inactive). The GI50 in the test on NCI-H460 was > 100 µM (inactive); with OVCAR-4 it was > 100 µM (inactive); in the test on SF-539 it was > 100 µM (inactive); in the test on U-251 it was 75.2 µM (inactive).

Consider `C[C@H](CCC1=NCCN1)[C@H]1CC[C@H]2[C@@H]3CC[C@@H]4C[C@H](O)CC[C@]4(C)[C@H]3C[C@H](O)[C@]12C`, for which the GI50 with A498 was 20.8 µM (inactive); in the test on ACHN, 16.9 µM (inactive); in the test with COLO 205, 10.2 µM (inactive); in the test on DU-145, 15.6 µM (inactive); in the test with HL-60 it was 10.8 µM (inactive); in the test on HT-29, 10.5 µM (inactive). For the same compound, the GI50 is 11.4 µM (inactive) with Hs-578T; 11.8 µM (inactive) with KM12; 11.2 µM (inactive) with LOX IMVI; 17.4 µM (inactive) in the test with M14; 12.7 µM (inactive) in the test on MCF7; 14.9 µM (inactive) in the test with MDA-MB-231. Also, the GI50 in the test with Malme-3M is 13.7 µM (inactive); with NCI-H460, 13.9 µM (inactive); in the test on OVCAR-4 it was 15.9 µM (inactive); in the test on SF-539 it was 13.2 µM (inactive); in the test with SK-MEL-5, 11.8 µM (inactive); in the test on U-251, 8.11 µM (inactive).

For `NC(=S)N/N=C(\Cc1nc2ccc(Cl)cc2nc1O)C(=O)Nc1ccc(Cl)cc1`, the GI50 in the test on A549, in the test on ACHN, in the test with COLO 205, in the test on DU-145, in the test with HL-60 and in the test with HT-29 was > 100 µM (inactive) throughout. The GI50 in the test with Hs-578T, in the test with KM12, in the test on LOX IMVI, in the test on M14, in the test with MCF7 and with MDA-MB-231 was > 100 µM (inactive) in each case. The GI50 with NCI-H460, with OVCAR-4, with SF-539, in the test on SK-MEL-5 and in the test with U-251 was > 100 µM (inactive) throughout.

Regarding `CCOP(=O)(OCC)C(C)(CC)NC` (stereo not drawn), the GI50 with A498, in the test with A549, with ACHN, in the test with COLO 205, in the test on DU-145 and in the test on HL-60 was > 100 µM (inactive) each time. The GI50 with HT-29, with Hs-578T, with KM12, in the test on LOX IMVI, in the test with M14 and with MCF7 was > 100 µM (inactive) in each case. The GI50 with MDA-MB-231, in the test on Malme-3M, in the test with NCI-H460, with OVCAR-4, with SF-539 and in the test with SK-MEL-5 was > 100 µM (inactive) in each case. In the test with U-251, the GI50 was > 100 µM (inactive).

Consider `CC(SC(=S)N1CCCCC1)C(=O)Nc1nnc(-c2ccc(Cl)cc2)o1` (stereo not drawn), for which the GI50 is 22.9 µM (inactive) in the test on A498; 30.3 µM (inactive) in the test on A549; 30.5 µM (inactive) in the test on ACHN; 34.9 µM (inactive) with COLO 205; 32.1 µM (inactive) with DU-145; 0.575 µM (active) in the test on HL-60. For the same compound, the GI50 is 23 µM (inactive) in the test with HT-29; 40.6 µM (inactive) in the test on Hs-578T; 23.6 µM (inactive) in the test with LOX IMVI; 20.1 µM (inactive) in the test with M14; 25.8 µM (inactive) in the test on MCF7; 26.7 µM (inactive) in the test on MDA-MB-231. Also, the GI50 is 19.1 µM (inactive) with Malme-3M; 27.2 µM (inactive) in the test on NCI-H460; 27.4 µM (inactive) in the test on OVCAR-4; 58.7 µM (inactive) in the test with SF-539; 32.1 µM (inactive) with SK-MEL-5; 24.7 µM (inactive) with U-251.

With `COc1ccc(/C=N\NC(=O)Nc2cccc3ccccc23)cc1`, the GI50 in the test on A498 was 18.2 µM (inactive); in the test on A549, 45.4 µM (inactive); in the test on ACHN it was 14.5 µM (inactive); in the test with COLO 205, > 100 µM (inactive); in the test on DU-145 it was 38.5 µM (inactive); in the test with HL-60 it was 4.82 µM (inactive). For the same compound, the GI50 in the test with HT-29 was 8.97 µM (inactive); in the test on Hs-578T, 6.75 µM (inactive); with KM12, 11.7 µM (inactive); in the test on LOX IMVI it was 13.1 µM (inactive); with M14 it was 35.4 µM (inactive); in the test with MCF7 it was 4.44 µM (inactive). The GI50 in the test on MDA-MB-231 was 20.5 µM (inactive); with Malme-3M it was 26.2 µM (inactive); in the test with NCI-H460, 10 µM (inactive); with OVCAR-4, 15.6 µM (inactive); with SF-539 it was 14 µM (inactive); with SK-MEL-5 it was 28.2 µM (inactive). Also, the GI50 with U-251 is 13.9 µM (inactive).

In the case of `CC1(C)CC[C@]2(C)[C@@H](O)C[C@]3(C)C(=CC[C@@H]4[C@@]5(C)CC[C@H](O)C(C)(C)[C@@H]5CC[C@]43C)[C@@H]2C1`, the GI50 was 34.3 µM (inactive) in the test with A498; 31.7 µM (inactive) with A549; 41.4 µM (inactive) in the test on ACHN; 48.6 µM (inactive) in the test on COLO 205; 40.6 µM (inactive) with DU-145; > 100 µM (inactive) with HL-60. The GI50 in the test on HT-29 was 39.2 µM (inactive); in the test with Hs-578T, 24.4 µM (inactive); with KM12, 41.4 µM (inactive); in the test with LOX IMVI, 16.4 µM (inactive); in the test with M14 it was 93.1 µM (inactive); in the test on MCF7, 37.9 µM (inactive). The GI50 in the test on MDA-MB-231 was 16.8 µM (inactive); with Malme-3M, 29.4 µM (inactive); in the test with NCI-H460 it was 41.2 µM (inactive); in the test on OVCAR-4 it was 97.3 µM (inactive); with SK-MEL-5 it was 35.3 µM (inactive); in the test on U-251, 28.7 µM (inactive).

(Values after ChEMBL document CHEMBL1201862, “PubChem BioAssay data set” (2004).)
